Key:
mice = details: six-month old mice; 10 mg/kg oral gavage once a day for 30 days; assessed over final 3 days; vs water; cited from earlier work
[1] = tested on: agitation in patients with Alzheimer's Dementia (AD); assay: Clinical trial of oral fasudil in reducing agitation in patients with Alzheimer's Dementia (CMAI, NPI-Q); assay type: in vivo, human; details: cutoff moved from 0 to 35 in 5-point increments; FIG. 3
Experimental: All the patients were treated for 6 weeks with 90 mg per day (30 mg TID) and a subset of patients was treated an additional 6 weeks with 180 mg per day (60 mg TID). […] A variety of assessments were conducted at baseline and at the end of treatment, including the NPI-Q and the CMAI.
Two baseline thresholds were set, and two analyses were done based on the two groupings that resulted. One threshold was based on the agitation/aggression domain of the NPI-Q and the other based on the CMAI score.
The first selection was based on NPI-Q score of ≥4.
The second selection required a baseline CMAI score of ≥20 and this yielded a 13-patient subgroup, having a mean baseline CMAI score of 34.4. […] All the patients selected using the NPI-Q agitation/aggression domain score of ≥4 were also included in this subgroup.
The analysis looked at the CMAI score prior to treatment and compared it to the last day of treatment (6 weeks for the 10 patients on the low dose and 12 weeks for the 3 patients on the high dose).
Finally, to examine the effects of changing the CMAI-C threshold, 5-point increments were used to move the cutoff from 0 to 35. […] It was concluded that setting the CMAI-C threshold of at least 5 provided a meaningful result over the population, even though higher thresholds we more powerful at detecting change.

In the case of `O=S(=O)(c1cccc2cnccc12)N1CCCNCC1` [fasudil], the “amount of time spent in the open arms of the maze” value (mice) is listed as “significantly reduced” and the “effect of changing the baseline CMAI-C threshold on magnitude of observed effect” value [1] is listed as “As the threshold increased, so did the magnitude of the observed effect”.

Source: US11865119B2, “Methods of treating agitation and other dementia-associated behavioral symptoms” (Woolsey Pharmaceuticals, Inc., priority 2021, dated 2024)
